{
  "source": "patent US10502749B1",
  "about": "“Method for patient stratification and drug efficacy monitoring” (New York University, priority 2016, dated 2019)",
  "key": {"[1]": {"tested_on": "Ras, dynamin, Grin2B, and mGlur5", "assay": "Western blot of candidate proteins in brains of FXS and WT littermates after chronic S6K1 inhibitor treatment", "assay_type": "in vivo, mouse", "details": "for Expression of candidate proteins (Ras, dynamin, Grin2B, mGlur5) in brain after treatment: FXS model mice, chronic treatment, 25 mg/kg i.p. daily for 10 days, western blot, 25 mg/kg", "procedure": "(§1) PF-4708671 was obtained from Sigma, Mo., USA. Littermate matched mice underwent 10 days of daily 25 mg/kg intraperitoneal injections of PF-4708671 in a vehicle consisting of saline +5% v/v of Tween-80 (Sigma). On day 10, 90 mins after the final injection mice were killed by cervical dislocation and the hippocampus was quickly dissected to yield whole hippocampal lysates. Simultaneously, trunk blood also was collected to monitor peripheral levels of proteins.\nThus, the candidates correlate with improved behavior in the brain. We therefore evaluated if they could be measured and quantified in a peripheral tissue such as blood. Animals were treated as described above with PF-4708671, then animals were euthanized via cervical dislocation and brain tissue was collected on ice and snap frozen. Lysates were then prepared as previously described (Bhattacharya et al, 2016, incorporated herein by reference) and analyzed by western blot.\nBrain tissues were obtained immediately following euthanasia, snap frozen and homogenized in lysis buffer containing protease and phosphatase inhibitors. Lysates were then analyzed using Western blotting and the levels of specific candidates was determined using densitometry and comparing them to a known loading control such as actin, Gapdh or transferrin receptor."}, "FXS model mice [2]": {"tested_on": "FXS model mice", "details": "cited from earlier work"}, "FXS model mice [3]": {"tested_on": "FXS model mice", "details": "cited from earlier work", "remark": "listed apart in the source"}, "FXS model mice [4]": {"tested_on": "FXS model mice", "details": "cited from earlier work", "remark": "listed apart in the source"}, "Ras": {"tested_on": "Ras", "assay": "Concentration levels of mGluR and Ras in mouse trunk blood after 10 days of treatment", "assay_type": "in vivo", "procedure": "as §1\nFXS or wild type mice were treated with an S6K1 inhibitor, PF-4708671 (S6Ki) for 10 days. Concentration levels of the two markers—mGluR and Ras in mouse trunk blood treated with vehicle or the S6Ki were determined. N=3 animals per treatment per genotype were used. Statistical analyses was done using two-way ANOVA (genotype×treatment). P=0.0079 for interaction and p=0.019 for FXS±S6Ki and p=0.16 for WT±S6Ki."}, "FXS model mice [5]": {"tested_on": "FXS model mice", "details": "cited from earlier work", "remark": "listed apart in the source"}},
  "data": [
    {"smiles": "CCc1cncnc1N1CCN(Cc2nc3ccc(C(F)(F)F)cc3[nH]2)CC1", "note": "[PF-4708671]", "values": [
      {"measurement": "Ras in the brain of FXS mice after S6K1 inhibitor", "setting": "[1]; FXS mice, brain, FIG. 3", "result": "does not change"},
      {"measurement": "Expression of candidate proteins (Ras, dynamin, Grin2B, mGlur5) in brain after treatment", "setting": "[1]", "result": "rescues expression of 3 protein candidates in brain"},
      {"measurement": "Expression of candidate proteins (Ras, dynamin, Grin2B, mGlur5) in brain after treatment", "setting": "[1]; listed as S6K1 inhibitor", "result": "3 out of 4 are statistically improved"},
      {"measurement": "Aberrant y-maze reversal learning, rescued by S6K1i", "setting": "FXS model mice [2]", "result": "Both inhibitors rescued"},
      {"measurement": "Aberrant social novelty behavior, rescued by S6K1i", "setting": "FXS model mice [3]", "result": "Both inhibitors rescued"},
      {"measurement": "Increased protein synthesis, rescued by S6K1i", "setting": "FXS model mice [4]", "result": "Both inhibitors rescued"},
      {"measurement": "Ras level in trunk blood, greater than WT veh", "setting": "Ras; FXS mice, vehicle 10 days (printed as FXS+veh)", "result": 31, "unit": "%"},
      {"measurement": "Ras level in trunk blood, average (+/-SD)", "setting": "Ras; FXS mice, vehicle 10 days, N=3 (printed as FXS+veh)", "result": "1.19±0.21"},
      {"measurement": "Candidate proteins (mGluR, Ras) in FXS model mouse blood rescued by treatment", "setting": "Ras; FXS model mice, trunk blood, 10 days, listed as S6K1 inhibitor", "result": "one was rescued"},
      {"measurement": "Ras level in trunk blood, less from WT veh", "setting": "Ras; WT mice, S6Ki 10 days", "result": 32, "unit": "%"},
      {"measurement": "Ras level in trunk blood, average (+/-SD)", "setting": "Ras; WT mice, S6Ki 10 days, N=3", "result": "0.62±0.20"},
      {"measurement": "Aberrant spine morphology, rescued by S6K1i", "setting": "FXS model mice [5]", "result": "Both inhibitors rescued"}
    ]}
  ]
}
